Results on 9 compounds are retold here after patent US20260070945A1, “MACROCYCLIC IMMUNOMODULATORS” (Bristol-Myers Squibb Company, priority 2022, published 2026).

*1 amine or outer side, *2 acyl side, *3 side chain or, on linkers, in order; H or OH if unused. Where a SMILES comes first, the peptide text is derived from it. Bridges are numbered along the chain shown (N, C = ends). [ ]: non-standard residue; d: D form. The star is where a group is joined. ξ: configuration not given here. Phe(3-CF3) = N[C@@H](Cc1cccc(C(F)(F)F)c1)C(=O)O; Phe(4-COOH) = N[C@@H](Cc1ccc(C(=O)O)cc1)C(=O)O; Bip = N[C@@H](Cc1ccc(-c2ccccc2)cc1)C(=O)O; Phe(3-Me) = Cc1cccc(C[C@H](N)C(=O)O)c1; γGlu = O=C(O)[C@H](CCC(=O)[*:2])N[*:1]; NH(CH2)12COOH = O=C(O)CCCCCCCCCCCCN*; Val(3-OH) = CC(C)(O)[C@H](N)C(=O)O; hArg = N=C(N)NCCCC[C@H](N)C(=O)O; 4Pal = N[C@@H](Cc1ccncc1)C(=O)O; Cha = N[C@@H](CC1CCCCC1)C(=O)O; Cit = NC(=O)NCCC[C@H](N)C(=O)O; Thr(3ξ) = CC(O)[C@H](N)C(=O)O; 12Ado = NCCCCCCCCCCCC(=O)O; 4Abz = Nc1ccc(C(=O)O)cc1; Carboxymethyl = O=C(O)C*; NMeA = CN[C@@H](C)C(=O)O; Orn = NCCC[C@H](N)C(=O)O; Aun = NCCCCCCCCCCC(=O)O; Dab = NCC[C@H](N)C(=O)O; AEEA = NCCOCCOCC(=O)O

T1 sequence (Q15116 25-288): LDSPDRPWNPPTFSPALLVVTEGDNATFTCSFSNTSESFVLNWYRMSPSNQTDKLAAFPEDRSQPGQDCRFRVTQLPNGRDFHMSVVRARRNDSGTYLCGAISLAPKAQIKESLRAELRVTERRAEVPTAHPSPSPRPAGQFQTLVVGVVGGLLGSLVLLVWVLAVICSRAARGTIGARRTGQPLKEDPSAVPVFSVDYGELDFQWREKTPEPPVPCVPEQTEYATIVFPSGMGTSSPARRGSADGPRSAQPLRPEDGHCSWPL

One assay addresses T1, PD-1/PD-L1 interaction (PE-labeled human PD-L1-Ig binding to Jurkat cell line over-expressing human PD-1) (Homo sapiens, UniProt Q15116).
T1 construct: expressed in transfected cells; host or cells: Jurkat
The experiment in a line: Jurkat-PD-1 Cell Binding High-Content Screening Assay (CBA). Conditions: Jurkat-hPD-1 cells, PE-labeled PD-L1-Ig 20 nM final; read-out: Jurkat HPD1 PDL1 IC50. An outline of the steps: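 Cells 8×10^3/well, DMEM + 10% FCS; cpd 2 h, 37 °C; PE–PD-L1-Ig 20 nM final, 1 h; PFA fix + Hoechst 33342, 3× dPBS wash; high-content imager.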
In the case of `CC(C)C[C@@H]1NC(=O)[C@H](Cc2c[nH]c3ccccc23)NC(=O)[C@H](CC(=O)O)NC(=O)[C@H](Cc2ccc(OCC(=O)O)cc2)NC(=O)[C@H](CCCCNC(=N)N)NC(=O)CSC[C@@H](C(=O)NCC(=O)NCCOCCOCC(=O)N[C@@H](CCCN)C(=O)NCCCCCCCCCCCC(=O)O)NC(=O)[C@H](CO)NC(=O)[C@H](C(C)C)NC(=O)[C@H](CC2CCCCC2)NC(=O)[C@H](CCN)NC(=O)[C@@H](CC(C)C)NC(=O)[C@H](C)N(C)C(=O)[C@H](C(C)C)NC(=O)[C@H](Cc2ccc(-c3ccccc3)cc2)NC1=O` [Example 2123] ({CH2CO}-[hArg]Y(Carboxymethyl)DWL[Bip]V[NMeA][dL][Dab][Cha]VSCG[AEEA][Orn][12Ado]-OH; thioether N-14), the IC50 was 11.6 nM.

Turning to `COC[C@@H]1NC(=O)CSC[C@@H](C(=O)N[C@@H](CCN)C(=O)NCCOCCOCC(=O)N[C@@H](CCC(=O)NCCOCCOCC(=O)NCCCCCCCCCCCCC(=O)O)C(=O)O)NC(=O)[C@H](CO)NC(=O)[C@H](C(C)(C)O)NC(=O)[C@H](CC2CCCCC2)NC(=O)[C@H](CCN)NC(=O)[C@@H](CC(C)C)NC(=O)[C@H](C)N(C)C(=O)[C@H](CCCNC(N)=O)NC(=O)[C@H](Cc2ccc(-c3ccccc3)cc2)NC(=O)[C@H](Cc2ccc(C(=O)O)cc2)NC(=O)[C@H](Cc2cccc(C(F)(F)F)c2)NC(=O)[C@H](CC(=O)O)NC(=O)[C@H](Cc2ccc(OCC(=O)O)cc2)NC1=O` [Example 1181] ({CH2CO}-S(Me)Y(Carboxymethyl)D[Phe(3-CF3)][Phe(4-COOH)][Bip][Cit][NMeA][dL][Dab][Cha][Val(3-OH)]SC[Dab][AEEA][γGlu][AEEA]-{NH(CH2)12COOH}; thioether N-14), the IC50 stood at 48.5 nM.

With `CC(C)C[C@@H]1NC(=O)[C@H](Cc2c[nH]c3ccccc23)NC(=O)[C@H](CC(=O)O)NC(=O)[C@H](Cc2ccc(C(=O)O)cc2)NC(=O)[C@H](Cc2ccc(OCC(=O)O)cc2)NC(=O)CSC[C@@H](C(=O)N[C@@H](CCCCN)C(=O)NCCOCCOCC(=O)NCCCCCCCCCCC(=O)O)NC(=O)[C@@H](CO)NC(=O)[C@H](C(C)C)NC(=O)[C@H](CC2CCCCC2)NC(=O)[C@H](CCN)NC(=O)[C@@H](CC(C)C)NC(=O)[C@H](C)N(C)C(=O)[C@H](C(C)C)NC(=O)[C@H](Cc2ccc(-c3ccccc3)cc2)NC1=O` [Example 1246] ({CH2CO}-Y(Carboxymethyl)[Phe(4-COOH)]DWL[Bip]V[NMeA][dL][Dab][Cha]V[dS]CK[AEEA][Aun]-OH; thioether N-14), the IC50 is 31.9 nM.

`CC(C)C[C@@H]1NC(=O)[C@H](Cc2c[nH]c3ccccc23)NC(=O)[C@H](CC(=O)O)NC(=O)[C@H](Cc2ccncc2)NC(=O)[C@H](Cc2ccc(OCC(=O)O)cc2)NC(=O)CSC[C@@H](C(=O)Nc2ccc(C(=O)NCCCCCCCCCCC(=O)O)cc2)NC(=O)[C@H](CCCNC(=N)N)NC(=O)[C@H](C(C)C)NC(=O)[C@H](CC2CCCCC2)NC(=O)[C@H](CCN)NC(=O)[C@@H](CC(C)C)NC(=O)[C@H](C)N(C)C(=O)[C@H](C(C)C)NC(=O)[C@H](Cc2ccc(-c3ccccc3)cc2)NC1=O` [Example 1214] ({CH2CO}-Y(Carboxymethyl)[4Pal]DWL[Bip]V[NMeA][dL][Dab][Cha]VRC[4Abz][Aun]-OH; thioether N-14): the IC50 turned out to be 77.2 nM.

As to `CC(C)C[C@@H]1NC(=O)[C@H](Cc2c[nH]c3ccccc23)NC(=O)[C@H](CC(=O)O)NC(=O)[C@H](Cc2ccc(C(=O)O)cc2)NC(=O)[C@H](Cc2ccc(OCC(=O)O)cc2)NC(=O)CSC[C@@H](C(=O)N[C@@H](CCCN)C(=O)NCCOCCOCC(=O)NCCCCCCCCCCC(N)=O)NC(=O)[C@H](CCCNC(N)=O)NC(=O)[C@H](C(C)C)NC(=O)[C@H](CC2CCCCC2)NC(=O)[C@H](CCN)NC(=O)[C@@H](CC(C)C)NC(=O)[C@H](C)N(C)C(=O)[C@H](C(C)C)NC(=O)[C@H](Cc2ccc(-c3ccccc3)cc2)NC1=O` [Example 1215] ({CH2CO}-Y(Carboxymethyl)[Phe(4-COOH)]DWL[Bip]V[NMeA][dL][Dab][Cha]V[Cit]C[Orn][AEEA][Aun]-NH2; thioether N-14), the IC50 stood at 10.8 nM.

`Cc1cccc(C[C@@H]2NC(=O)[C@H](CC(=O)O)NC(=O)[C@H](Cc3ccc(C(=O)O)cc3)NC(=O)[C@H](Cc3ccc(OCC(=O)O)cc3)NC(=O)CSC[C@@H](C(=O)NCC(=O)N[C@@H](CCC(=O)O)C(=O)NCCOCCOCC(=O)N[C@@H](CCC(=O)NCCOCCOCC(=O)NCCCCCCCCCCC(=O)O)C(=O)O)NC(=O)[C@H](CO)NC(=O)[C@H](C(C)C)NC(=O)[C@H](CC(C)C)NC(=O)[C@H](CC(N)=O)NC(=O)[C@@H](CC(C)C)NC(=O)[C@H](C)N(C)C(=O)[C@H](C(C)C)NC(=O)[C@H](Cc3ccc(-c4ccccc4)cc3)NC(=O)[C@H](CC(C)C)NC2=O)c1` [Example 1018] ({CH2CO}-Y(Carboxymethyl)[Phe(4-COOH)]D[Phe(3-Me)]L[Bip]V[NMeA][dL]NLVSCGE[AEEA][γGlu][AEEA][Aun]-OH; thioether N-14): the IC50 is 67.7 nM.

Still in this assay, the particulars now being: PE-labeled PD-L1-Ig 20 nM final, Jurkat-hPD-1 cells; read-out: Jurkat HPD1 PDL1 IC50.
Consider `Cc1cccc(C[C@@H]2NC(=O)[C@H](CC(=O)O)NC(=O)[C@H](Cc3ccc(C(=O)O)cc3)NC(=O)[C@H](C(C)O)NC(=O)CSC[C@@H](C(=O)N[C@@H](CCCN)C(=O)NCCOCCOCC(=O)NCCCCCCCCCCC(=O)O)NC(=O)[C@H](CCC(=O)O)NC(=O)[C@H](C(C)(C)O)NC(=O)[C@H](CC3CCCCC3)NC(=O)[C@H](CCN)NC(=O)[C@@H](CC(C)C)NC(=O)[C@H](C)N(C)C(=O)[C@H](Cc3ccc(C(=O)O)cc3)NC(=O)[C@H](Cc3ccc(-c4ccccc4)cc3)NC(=O)[C@H](Cc3ccc(C(=O)O)cc3)NC2=O)c1` (stereo partly drawn) [Example 2499] ({CH2CO}-[Thr(3ξ)][Phe(4-COOH)]D[Phe(3-Me)][Phe(4-COOH)][Bip][Phe(4-COOH)][NMeA][dL][Dab][Cha][Val(3-OH)]EC[Orn][AEEA][Aun]-OH; thioether N-14), for which the IC50 was 78 nM.

`CC(C)C[C@@H]1NC(=O)[C@H](Cc2c[nH]c3ccccc23)NC(=O)[C@H](CC(=O)O)NC(=O)[C@H](Cc2ccc(C(=O)O)cc2)NC(=O)[C@H](Cc2ccc(OCC(=O)O)cc2)NC(=O)CSC[C@@H](C(=O)NCCOCCOCC(=O)NCCCCCCCCCCC(=O)O)NC(=O)[C@H](Cc2cnc[nH]2)NC(=O)[C@H](C(C)C)NC(=O)[C@H](CC2CCCCC2)NC(=O)[C@H](CCN)NC(=O)[C@@H](CC(C)C)NC(=O)[C@H](C)N(C)C(=O)[C@H](C(C)C)NC(=O)[C@H](Cc2ccc(-c3ccccc3)cc2)NC1=O` [Example 2441] ({CH2CO}-Y(Carboxymethyl)[Phe(4-COOH)]DWL[Bip]V[NMeA][dL][Dab][Cha]VHC[AEEA][Aun]-OH; thioether N-14): the IC50 was 33.8 nM.

Turning to `CC(=O)NCCCC[C@@H]1NC(=O)[C@H](C(C)(C)O)NC(=O)[C@H](CC2CCCCC2)NC(=O)[C@H](CCN)NC(=O)[C@@H](CC(C)C)NC(=O)[C@H](C)N(C)C(=O)[C@H](CCC(N)=O)NC(=O)[C@H](Cc2ccc(-c3ccccc3)cc2)NC(=O)[C@H](Cc2ccc(C(=O)O)cc2)NC(=O)[C@H](Cc2cccc(C)c2)NC(=O)[C@H](CC(=O)O)NC(=O)[C@H](Cc2ccc(OCC(=O)O)cc2)NC(=O)[C@H](Cc2ccc(OCC(=O)O)cc2)NC(=O)CSC[C@@H](C(=O)N[C@@H](CCN)C(=O)NCCCCCCCCCCCCC(=O)O)NC1=O` [Example 2563] ({CH2CO}-Y(Carboxymethyl)Y(Carboxymethyl)D[Phe(3-Me)][Phe(4-COOH)][Bip]Q[NMeA][dL][Dab][Cha][Val(3-OH)]K(Ac)C[Dab]-{NH(CH2)12COOH}; thioether N-14), the IC50 was 4.6 nM.

By IC50 is commonly meant the concentration that inhibits the measured activity by half.
